Data: patent publication US4645858A, “Pentanedioic acid derivatives” (G. D. Searle & Co., priority 1985, dated 1987)
Values belong to the compound of their own block, whether it stands above or below them.

Experiments:
HMG CoA reductase = molecular target: T1, HMG CoA reductase (Rattus norvegicus, UniProt P51639); assay: HMG CoA reductase activity assay (rat liver microsomal preparation); format: biochemical
T1 construct: The resultant supernatants are discarded and the residues suspended in half the volume of homogenization medium previously employed; from tissue; host or cells: liver of male Charles River CD rats treated with 20,25-diazacholesterol; 100,000×g pellet (microsomes) of the homogenate
T1 sequence (P51639 1-887): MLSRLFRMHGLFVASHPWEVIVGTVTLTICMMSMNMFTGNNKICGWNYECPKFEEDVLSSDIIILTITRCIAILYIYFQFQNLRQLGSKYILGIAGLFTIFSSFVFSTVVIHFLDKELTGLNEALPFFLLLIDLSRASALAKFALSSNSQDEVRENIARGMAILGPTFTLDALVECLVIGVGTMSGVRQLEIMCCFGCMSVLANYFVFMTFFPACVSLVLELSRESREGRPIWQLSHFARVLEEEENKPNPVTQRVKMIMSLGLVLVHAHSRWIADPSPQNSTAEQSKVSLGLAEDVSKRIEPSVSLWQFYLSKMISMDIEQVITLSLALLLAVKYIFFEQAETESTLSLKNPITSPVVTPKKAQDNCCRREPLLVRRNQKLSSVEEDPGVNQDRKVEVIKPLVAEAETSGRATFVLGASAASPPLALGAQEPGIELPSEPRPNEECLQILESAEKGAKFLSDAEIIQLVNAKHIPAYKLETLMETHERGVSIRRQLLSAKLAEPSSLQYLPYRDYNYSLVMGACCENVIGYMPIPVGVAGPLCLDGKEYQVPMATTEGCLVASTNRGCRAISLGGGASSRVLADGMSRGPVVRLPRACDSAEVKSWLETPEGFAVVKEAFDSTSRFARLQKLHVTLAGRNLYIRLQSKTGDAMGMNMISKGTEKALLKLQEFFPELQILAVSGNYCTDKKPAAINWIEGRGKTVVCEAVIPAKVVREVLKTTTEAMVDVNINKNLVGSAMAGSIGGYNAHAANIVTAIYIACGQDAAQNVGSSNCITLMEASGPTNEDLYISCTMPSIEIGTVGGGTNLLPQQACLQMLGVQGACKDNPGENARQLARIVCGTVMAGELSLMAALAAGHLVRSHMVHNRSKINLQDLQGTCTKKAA

male Rhesus monkey = assay: In vivo serum cholesterol test in male Rhesus monkeys; conditions: 60 mg/kg/day
Procedure: In vivo activity is tested as follows:
Initial serum total cholesterol, triglycerides, and lipoprotein cholesterol values are determined 3 times for each male Rhesus monkey used before treatment with a test compound begins. The test compound is administered in an initial dose of 60 mg/kg for 2 weeks and blood samples are taken to determine if rebound occurs. […] Statistical comparisons are made using the two tailed student's test.

IC50 (HMG CoA reductase; read-out: IC50 (HMG CoA reductase inhibition)): 52 µM
Compound: O=C(O)CC(O)(CCCCCCCCCCC1CCCCC1)CC(=O)O

HMG CoA reductase inhibition (HMG CoA reductase; at concentrations at least up to 1000 μm): inactive
Compound: O=C(O)CC(O)(CC(=O)O)CC1CCCC1

Compound: CC(C)(C)CCCCCCCCCCCC(O)(CC(=O)O)CC(=O)O
reduced serum cholesterol (male Rhesus monkey; after 14 days of treatment, Rhesus monkey): 30%

Compound: CCCCCCCCCCCCCCCC(O)(CC(=O)O)CC(=O)O
acute toxicity (male Rhesus monkey; Rhesus monkeys): acute toxicity in 2 of 4 monkeys
